Patent publication US20230116972A1, “CD38 MODULATORS AND METHODS OF USE THEREOF” (Cytokinetics, Inc., priority 2021, published 2023)

Assays:
[1] = target: T1, endogenous CD38 in HL60 cells (Homo sapiens, UniProt P28907); assay: cellular CD38 assay in HL60 cells (cellular NAD levels); type: cell-based; settings: all-trans retinoic acid, 24 hours, read-out: hCD38 HL60 ATRA NAD Cell Diaphorase IC50
T1 construct: endogenous in cells; host or cells: HL60 (leukemic cells, treated with all-trans retinoic acid)
T1 sequence (P28907 1-300): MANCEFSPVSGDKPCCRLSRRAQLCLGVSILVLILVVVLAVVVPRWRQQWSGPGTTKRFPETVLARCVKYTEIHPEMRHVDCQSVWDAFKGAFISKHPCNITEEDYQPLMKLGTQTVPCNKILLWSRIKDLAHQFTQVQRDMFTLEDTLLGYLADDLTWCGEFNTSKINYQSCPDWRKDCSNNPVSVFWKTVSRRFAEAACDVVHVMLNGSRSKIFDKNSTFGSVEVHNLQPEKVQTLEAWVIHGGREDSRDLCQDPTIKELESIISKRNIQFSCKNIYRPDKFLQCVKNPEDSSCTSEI
Summary of the method: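 HL60 cells (20000/well) were treated with compound in DMSO for 24 h. Cellular NAD was then measured by an enzymatic cycling mix (alcohol dehydrogenase, diaphorase, 40 uM resazurin, 10 uM FMN, 3% ethanol, Triton X-100, pH 8.4).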

human CD38 = target: T2, human CD38 (Homo sapiens, UniProt P28907); assay: human recombinant CD38 enzyme assay (hydrolysis of NAD+); type: biochemical; settings: human recombinant CD38, 0.4 nM enzyme, 62.5 μM NAD+; read-out: hCD38 BioChem IC50
T2 sequence (P28907 1-300): T1 sequence (P28907 1-300)
Summary of the method: (§1)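 Inhibitors were titrated against purified CD38 hydrolysing NAD+ for 60 min at ambient temperature. Unconsumed substrate was quantified enzymatically via NADH-coupled resazurin reduction and fluorescence.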

mouse CD38 = target: T3, mouse CD38 (Mus musculus, UniProt P56528); assay: mouse recombinant CD38 enzyme assay (hydrolysis of NAD+); type: biochemical; settings: read-out: mCD38 BioChem IC50
T3 sequence (P56528 1-304): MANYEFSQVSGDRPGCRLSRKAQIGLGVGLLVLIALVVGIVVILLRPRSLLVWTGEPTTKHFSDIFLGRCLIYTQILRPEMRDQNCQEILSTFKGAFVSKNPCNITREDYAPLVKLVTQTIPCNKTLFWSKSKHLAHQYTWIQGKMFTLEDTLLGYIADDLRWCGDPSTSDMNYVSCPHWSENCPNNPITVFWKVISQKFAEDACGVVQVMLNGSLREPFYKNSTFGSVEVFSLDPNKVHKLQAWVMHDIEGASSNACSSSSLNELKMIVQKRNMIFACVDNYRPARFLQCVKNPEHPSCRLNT
Summary of the method: as §1

| IC50 [1] [nM] | IC50 (human CD38) [nM] | IC50 (mouse CD38) [nM] | SMILES |
| --- | --- | --- | --- |
| 1380 | 43 | 13 | Cn1cncc1-c1ccnc(C(=O)N[C@H]2CC[C@H](C)CC2)n1 [Compound 149, 4-(1-methyl-1H-imidazol-5-yl)-N-((1r,4r)-4-methylcyclohexyl)pyrimidine-2-carboxamide] |
| 2620 | 4.1 | 3.4 | Cn1cncc1-c1nc(C(=O)N[C@H]2C[C@H](Oc3ccccc3)C2)cc(C2CCOCC2)n1 [Compound 291, 2-(1-methyl-1H-imidazol-5-yl)-N-((1r,3r)-3-phenoxycyclobutyl)-6-(tetrahydro-2H-pyran-4-yl)pyrimidine-4-carboxamide] |
| 2380 | 43.2 | 40.9 | O=C(N[C@H]1C[C@H](c2ccc(F)cc2)C1)c1nccc(-n2ccnc2)n1 [Compound 238, N-((1r,3r)-3-(4-fluorophenyl)cyclobutyl)-4-(1H-imidazol-1-yl)pyrimidine-2-carboxamide] |
| 1130 | 3.6 | 2.2 | COc1cc(C(=O)Nc2ccc(C(F)(F)F)nc2)nc(-n2ccnc2)c1 [Compound 221, 6-(1H-imidazol-1-yl)-4-methoxy-N-(6-(trifluoromethyl)pyridin-3-yl)picolinamide] |
| 940 | 5.7 | 10.2 | CC(C)(O)c1ccc(NC(=O)c2nccc(-n3ccnc3)n2)cc1 [Compound 357, N-(4-(2-hydroxypropan-2-yl)phenyl)-4-(1H-imidazol-1-yl)pyrimidine-2-carboxamide] |
| 4480 | 251 | 176 | Cn1cncc1-c1ccnc(C(=O)NC23CC(C(C)(C)O)(C2)C3)n1 [Compound 294, N-(3-(2-hydroxypropan-2-yl)bicyclo[1.1.1]pentan-1-yl)-4-(1-methyl-1H-imidazol-5-yl)pyrimidine-2-carboxamide] |
| 3980 | 228 | 185 | CC(C)(O)c1cc(C(=O)Nc2ccc(C(F)F)nc2)nc(-n2ccnc2)n1 [Compound 158, N-(6-(difluoromethyl)pyridin-3-yl)-6-(2-hydroxypropan-2-yl)-2-(1H-imidazol-1-yl)pyrimidine-4-carboxamide] |
| 928 | 9 | 1 | COc1cc(C(=O)N[C@H]2CC[C@H](OC)CC2)nc(-c2cncn2C)n1 [Compound 128, 6-methoxy-N-((1r,4r)-4-methoxycyclohexyl)-2-(1-methyl-1H-imidazol-5-yl)pyrimidine-4-carboxamide] |
| 1580 | 10 | 1 | Cc1cc(C(=O)N[C@H]2CC[C@H](C)CC2)nc(-n2ccnc2)n1 [Compound 119, 2-(1H-imidazol-1-yl)-6-methyl-N-((1r,4r)-4-methylcyclohexyl)pyrimidine-4-carboxamide] |
| 468 | 13 | 13 | COc1ccc(NC(=O)c2cccc(-n3ccnc3)n2)cn1 [Compound 25, 6-(1H-imidazol-1-yl)-N-(6-methoxypyridin-3-yl)picolinamide] |
| 915 | 22 | 10 | O=C(N[C@H]1CC[C@H](C(F)F)CC1)c1cncc(-n2ccnc2)n1 [Compound 89, N-((1r,4r)-4-(difluoromethyl)cyclohexyl)-6-(1H-imidazol-1-yl)pyrazine-2-carboxamide] |
| 1440 | 15 | 25 | Cn1cncc1-c1cccc(C(=O)Nc2ccc(C(F)(F)F)nc2)n1 [Compound 71, 6-(1-methyl-1H-imidazol-5-yl)-N-(6-(trifluoromethyl)pyridin-3-yl)picolinamide] |
| 1470 | 15.2 | 9.1 | Cn1cncc1-c1ccnc(C(=O)N[C@H]2C[C@H](c3ccccc3)C2)n1 [Compound 213, 4-(1-methyl-1H-imidazol-5-yl)-N-((1r,3r)-3-phenylcyclobutyl)pyrimidine-2-carboxamide] |
| 365 | 9 | 8 | Cc1ccc(NC(=O)c2cccc(-n3ccnc3)n2)cn1 [Compound 20, 6-(1H-imidazol-1-yl)-N-(6-methylpyridin-3-yl)picolinamide] |
| 7290 | 53.7 | 8.1 | COCCO[C@H]1CC[C@H](NC(=O)c2nc(C)cc(-c3cncn3C)n2)CC1 [Compound 232, N-((1r,4r)-4-(2-methoxyethoxy)cyclohexyl)-4-methyl-6-(1-methyl-1H-imidazol-5-yl)pyrimidine-2-carboxamide] |
| 2210 | 31.5 | 15.4 | Cn1cncc1-c1ccnc(C(=O)N[C@H]2CC[C@H](OC(F)F)CC2)n1 [Compound 275, N-((1r,4r)-4-(difluoromethoxy)cyclohexyl)-4-(1-methyl-1H-imidazol-5-yl)pyrimidine-2-carboxamide] |
| 369 | 4 | 13 | Cn1cncc1-c1cncc(C(=O)Nc2ccc(C(F)(F)F)nc2)n1 [Compound 90, 6-(1-methyl-1H-imidazol-5-yl)-N-(6-(trifluoromethyl)pyridin-3-yl)pyrazine-2-carboxamide] |
| 1360 | 24 | 10 | Cn1cncc1-c1cncc(C(=O)N[C@H]2CC[C@H](C)CC2)n1 [Compound 104, 6-(1-methyl-1H-imidazol-5-yl)-N-((1r,4r)-4-methylcyclohexyl)pyrazine-2-carboxamide] |
| 5820 | 98 | 66 | CC(=O)N1CCC(NC(=O)c2cccc(-n3ccnc3)n2)CC1 [Compound 44, N-(1-acetylpiperidin-4-yl)-6-(1H-imidazol-1-yl)picolinamide] |
| 3130 | 61.2 | 33.6 | O=C(N[C@H]1C[C@H](c2ccc(F)cc2F)C1)c1nccc(-n2ccnc2)n1 [Compound 239, N-((1r,3r)-3-(2,4-difluorophenyl)cyclobutyl)-4-(1H-imidazol-1-yl)pyrimidine-2-carboxamide] |
| 3570 | 210 | 68 | Cc1cc(C(=O)Nc2cccnc2)nc(-c2cncs2)c1 [Compound 35, 4-methyl-N-(pyridin-3-yl)-6-(thiazol-5-yl)picolinamide] |
| 655 | 2.4 | 0.7 | Cn1cncc1-c1nc(C(=O)Nc2ccc(OC(F)F)nc2)cc(C2CCOCC2)n1 [Compound 282, N-(6-(difluoromethoxy)pyridin-3-yl)-2-(1-methyl-1H-imidazol-5-yl)-6-(tetrahydro-2H-pyran-4-yl)pyrimidine-4-carboxamide] |
| 2280 | 46.1 | 15.6 | Cn1cncc1-c1ccnc(C(=O)N[C@H]2CC[C@H](CO)CC2)n1 [Compound 259, N-((1r,4r)-4-(hydroxymethyl)cyclohexyl)-4-(1-methyl-1H-imidazol-5-yl)pyrimidine-2-carboxamide] |
| 7690 | 224 | 62 | COCCO[C@H]1CC[C@H](NC(=O)c2cccc(-c3cncn3C)n2)CC1 [Compound 65, N-(4-(2-methoxyethoxy)cyclohexyl)-6-(1-methyl-1H-imidazol-5-yl)picolinamide] |
| 2150 | 13.5 | 3.8 | Cn1cncc1-c1nc(C(=O)N[C@H]2CC[C@H](OC(F)F)CC2)cc(C2(C)COC2)n1 [Compound 311, N-((1r,4r)-4-(difluoromethoxy)cyclohexyl)-2-(1-methyl-1H-imidazol-5-yl)-6-(3-methyloxetan-3-yl)pyrimidine-4-carboxamide] |
| 4690 | 82 | 44 | COC(=O)N1CCC(NC(=O)c2cccc(-n3ccnc3)n2)CC1 [Compound 45, methyl 4-(6-(1H-imidazol-1-yl)picolinamido)piperidine-1-carboxylate] |
| 1370 | 8.9 | 7.5 | Cn1cncc1-c1cnc(N)c(C(=O)Nc2ccc(C(F)(F)F)nc2)n1 [Compound 314, 3-amino-6-(1-methyl-1H-imidazol-5-yl)-N-(6-(trifluoromethyl)pyridin-3-yl)pyrazine-2-carboxamide] |
| 4000 | 11.2 | 2.5 | Cn1cncc1-c1nc(C(=O)N[C@H]2CCc3cc(F)ccc32)cc(C2CCOCC2)n1 [Compound 229, (S)-N-(5-fluoro-2,3-dihydro-1H-inden-1-yl)-2-(1-methyl-1H-imidazol-5-yl)-6-(tetrahydro-2H-pyran-4-yl)pyrimidine-4-carboxamide] |
